Assay [1] has as its system peripheral blood mononuclear cells derived from a cancer patient. The experiment in a line: CTL induction by peptide from autologous PBMC of cancer patient, IFN-γ production on recognition of target cells (Example 5). In kind it is cell-based, human. Particulars: for Recognition of tumor cells by PBMC stimulated in vitro with peptide (IFN-γ production): SW620, CA9-22 and Panc-1 HLA-A2+ tumor cells, result in words; for IFN-γ production from peripheral blood mononuclear cells in recognition of target cells: PBMC stimulated with 10 μM peptide. The source says:
Among the peptides that were able to enhance IFN-γ production from the OK-CTLp or OK-CTL clone in Example 4, those from P1 to P19 were examined for their ability to induce CTL from peripheral blood mononuclear cells derived from a cancer patient. The method for inducing CTL by a peptide was according to the well-known method (J. Exp. Med., 187:277-288, 1998; Cancer Res., 59:4056-4063, 1999.) Specifically, autologous peripheral blood mononuclear cells (PBMC) derived from a cancer patient, from whom OK-CTLp was obtained, were incubated together with the peptide (10 μM.) The cells were re-stimulated at day 10 and 14 after the start of culturing, using autologous PBMCs as an antigen presenting cell (APC) which were pulsed with 10 μM of the same peptide for 2 h and exposed to irradiation (30 gray.) At day 21 after the start of culturing, the cells were collected to test for surface phenotype. In addition, the cells were examined for the recognition of various target cells, using IFN-γ production measured by ELISA when they were cultured together with the target cells as an indicator. As a target cells, SW620 cell, CA9-22 cell, and Panc-1 cell, which are the HLA-A2^+ tumor cells, were used.

The test system is the same in assay [2]. The assay is described as above. Format: cell-based, human. Particulars: PBMC stimulated with 10 μM peptide.

Some results are limits rather than exact numbers.

In the case of “ILGELREKV (Designed peptide having an ability to activate HLA-A2 restricted Cytotoxic T lymphocytes) [Peptide P11, Gene 3 (WHSC2) 141-149]”, the “Recognition of tumor cells by PBMC stimulated in vitro with peptide (IFN-γ production)” value (shortened to “Recognition of tumor cells”) in assay [1] was “produced IFN-γ in a significant amount”. Further, the “IFN-γ production from peripheral blood mononuclear cells in recognition of target cells” value (“IFN-γ production … of target cells” below) in assay [1] (target CA9-22 (HLA-A0207/24)) is 62 pg/mL; in assay [1] (target Panc-1 (HLA-A0201/11)), over 1000 pg/mL; in assay [1] (target SW620 (HLA-A0201/24)) it was 893 pg/mL; in assay [2] (target COLO320 (HLA-A24/24)), 0 pg/mL; in assay [2] (target QG56 (HLA-A26/26)), 0 pg/mL; in assay [2] (target RERF-LC-MS (HLA-A11/11)), 0 pg/mL.
With “RIQEWCSVI (RLQEWCSVI; Designed peptide having an ability to activate HLA-A2 restricted Cytotoxic T lymphocytes) [Peptide P1, Gene 1 (UBE2V) 43-51]”, the “Recognition of tumor cells” value in assay [1] is “produced IFN-γ in a significant amount”. Moreover, the “IFN-γ production … of target cells” value came to 81 pg/mL in assay [1] (target CA9-22 (HLA-A0207/24)); 492 pg/mL in assay [1] (target Panc-1 (HLA-A0201/11)); 235 pg/mL in assay [1] (target SW620 (HLA-A0201/24)); 50 pg/mL in assay [2] (target COLO320 (HLA-A24/24)); 0 pg/mL in assay [2] (target QG56 (HLA-A26/26)); 26 pg/mL in assay [2] (target RERF-LC-MS (HLA-A11/11)).
As to “ILPRKHHRI (Designed peptide having an ability to activate HLA-A2 restricted Cytotoxic T lymphocytes) [Peptide P5, Gene 1 (UBE2V) 208-216]”, the “Recognition of tumor cells” value in assay [1] is given as “produced IFN-γ in a significant amount”. Moreover, the “IFN-γ production … of target cells” value in assay [1] (target CA9-22 (HLA-A0207/24)) stood at 96 pg/mL; in assay [1] (target Panc-1 (HLA-A0201/11)), 638 pg/mL; in assay [1] (target SW620 (HLA-A0201/24)), 500 pg/mL; in assay [2] (target COLO320 (HLA-A24/24)), 38 pg/mL; in assay [2] (target QG56 (HLA-A26/26)), 0 pg/mL; in assay [2] (target RERF-LC-MS (HLA-A11/11)) it was 0 pg/mL.
Turning to “ALVEFEDVL (Designed peptide having an ability to activate HLA-A2 restricted Cytotoxic T lymphocytes) [Peptide P6, Gene 2 (HNRPL) 140-148]”, the “Recognition of tumor cells” value in assay [1] is “produced IFN-γ in a significant amount”. Moreover, the “IFN-γ production … of target cells” value in assay [1] (target CA9-22 (HLA-A0207/24)) is 863 pg/mL; in assay [1] (target Panc-1 (HLA-A0201/11)), 527 pg/mL; in assay [1] (target SW620 (HLA-A0201/24)) it was 344 pg/mL; in assay [2] (target COLO320 (HLA-A24/24)), 40 pg/mL; in assay [2] (target QG56 (HLA-A26/26)), 0 pg/mL; in assay [2] (target RERF-LC-MS (HLA-A11/11)), 8 pg/mL.
Turning to “ASLDSDPWV (Designed peptide having an ability to activate HLA-A2 restricted Cytotoxic T lymphocytes) [Peptide P10, Gene 3 (WHSC2) 103-111]”, the “Recognition of tumor cells” value in assay [1] is reported as “produced IFN-γ in a significant amount”. For the same sequence, the “IFN-γ production … of target cells” value in assay [1] (target CA9-22 (HLA-A0207/24)) was 130 pg/mL; in assay [1] (target Panc-1 (HLA-A0201/11)), 163 pg/mL; in assay [1] (target SW620 (HLA-A0201/24)) it was 108 pg/mL; in assay [2] (target COLO320 (HLA-A24/24)), 0 pg/mL; in assay [2] (target QG56 (HLA-A26/26)), 0 pg/mL; in assay [2] (target RERF-LC-MS (HLA-A11/11)), 0 pg/mL.
Take “LLQDWHVIL (Designed peptide having an ability to activate HLA-A2 restricted Cytotoxic T lymphocytes) [Peptide P4, Gene 1 (UBE2V) 201-209]”: the “Recognition of tumor cells” value in assay [1] was “induced CTL recognizing any one of the HLA-A2^+ tumor cells”. Moreover, the “IFN-γ production … of target cells” value in assay [1] (target CA9-22 (HLA-A0207/24)) came out at 0 pg/mL; in assay [1] (target Panc-1 (HLA-A0201/11)) it was 0 pg/mL; in assay [1] (target SW620 (HLA-A0201/24)), 60 pg/mL; in assay [2] (target COLO320 (HLA-A24/24)), 0 pg/mL; in assay [2] (target QG56 (HLA-A26/26)), 0 pg/mL; in assay [2] (target RERF-LC-MS (HLA-A11/11)), 0 pg/mL.
“FMFGQKLNV (Designed peptide having an ability to activate HLA-A2 restricted Cytotoxic T lymphocytes) [Peptide P8, Gene 2 (HNRPL) 443-451]”: the “Recognition of tumor cells” value in assay [1] is “produced IFN-γ in a significant amount”. For the same sequence, the “IFN-γ production … of target cells” value in assay [1] (target CA9-22 (HLA-A0207/24)) stood at 165 pg/mL; in assay [1] (target Panc-1 (HLA-A0201/11)), 186 pg/mL; in assay [1] (target SW620 (HLA-A0201/24)) it was 142 pg/mL; in assay [2] (target COLO320 (HLA-A24/24)), 0 pg/mL; in assay [2] (target QG56 (HLA-A26/26)) it was 0 pg/mL; in assay [2] (target RERF-LC-MS (HLA-A11/11)) it was 26 pg/mL.
Take “QILKGLLFL (Designed peptide having an ability to activate HLA-A2 restricted Cytotoxic T lymphocytes) [Peptide P16, Gene 5 (ppMAPkkk) 290-298]”: the “Recognition of tumor cells” value in assay [1] is listed as “induced CTL recognizing any one of the HLA-A2^+ tumor cells”. In addition, the “IFN-γ production … of target cells” value in assay [1] (target CA9-22 (HLA-A0207/24)) is 147 pg/mL; in assay [1] (target Panc-1 (HLA-A0201/11)) it was 113 pg/mL; in assay [1] (target SW620 (HLA-A0201/24)), 0 pg/mL; in assay [2] (target COLO320 (HLA-A24/24)), 0 pg/mL; in assay [2] (target QG56 (HLA-A26/26)) it was 0 pg/mL; in assay [2] (target RERF-LC-MS (HLA-A11/11)), 0 pg/mL.
For the sequence “LLLLARWEDT (Designed peptide having an ability to activate HLA-A2 restricted Cytotoxic T lymphocytes) [Peptide P2, Gene 1 (UBE2V) 64-73]”, the “Recognition of tumor cells” value in assay [1] was “induced CTL recognizing any one of the HLA-A2^+ tumor cells”. Besides, the “IFN-γ production … of target cells” value in assay [1] (target CA9-22 (HLA-A0207/24)) was determined as 0 pg/mL; in assay [1] (target Panc-1 (HLA-A0201/11)), 0 pg/mL; in assay [1] (target SW620 (HLA-A0201/24)), 53 pg/mL; in assay [2] (target COLO320 (HLA-A24/24)), 5 pg/mL; in assay [2] (target QG56 (HLA-A26/26)) it was 0 pg/mL; in assay [2] (target RERF-LC-MS (HLA-A11/11)) it was 0 pg/mL.
In the case of “NVLHFFNAPL (Designed peptide having an ability to activate HLA-A2 restricted Cytotoxic T lymphocytes) [Peptide P9, Gene 2 (HNRPL) 501-510]”, the “Recognition of tumor cells” value in assay [1] was “produced IFN-γ in a significant amount”. Moreover, the “IFN-γ production … of target cells” value in assay [1] (target CA9-22 (HLA-A0207/24)) stood at 98 pg/mL; in assay [1] (target Panc-1 (HLA-A0201/11)) it was 339 pg/mL; in assay [1] (target SW620 (HLA-A0201/24)), 194 pg/mL; in assay [2] (target COLO320 (HLA-A24/24)) it was 0 pg/mL; in assay [2] (target QG56 (HLA-A26/26)) it was 0 pg/mL; in assay [2] (target RERF-LC-MS (HLA-A11/11)), 27 pg/mL.
As for DLLSHAFFA [Peptide P18], the “Recognition of tumor cells” value in assay [1] is “produced IFN-γ in a significant amount”. Further, the “IFN-γ production … of target cells” value is 70 pg/mL in assay [1] (target CA9-22 (HLA-A0207/24)); over 1000 pg/mL in assay [1] (target Panc-1 (HLA-A0201/11)); over 1000 pg/mL in assay [1] (target SW620 (HLA-A0201/24)); 0 pg/mL in assay [2] (target COLO320 (HLA-A24/24)); 29 pg/mL in assay [2] (target QG56 (HLA-A26/26)); 0 pg/mL in assay [2] (target RERF-LC-MS (HLA-A11/11)).

The values are drawn from patent US7524930B2, “Tumor antigen” (Green Peptide Co., Ltd, priority 2003, dated 2009).
